# According to ChEMBL document CHEMBL1201862, “PubChem BioAssay data set” (2004):
#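 Values below derive from 48-hour exposures of cells grown in 96-well plates, with endpoints linearly interpolated between the two concentrations bracketing the appropriate inhibition level. GI50: concentration for 50% inhibition of growth.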 The source made the active and inactive calls. Cut-off read from the data, not from the text of the source: active = GI50 up to about 1.1 µM and inactive = higher.
# Experiments:
# Experiment in all cases: DTP human tumour cell line panel, 48 h
# A498 = tested on: A498
# A549 = tested on: A549
# ACHN = tested on: ACHN
# BT-549 = tested on: BT-549
# CAKI-1 = tested on: CAKI-1
# CCRF-CEM = tested on: CCRF-CEM
# COLO 205 = tested on: COLO 205
# DU-145 = tested on: DU-145
# EKVX = tested on: EKVX
# HCC 2998 = tested on: HCC 2998
# HCT-116 = tested on: HCT-116
# HCT-15 = tested on: HCT-15
# HOP-62 = tested on: HOP-62
# HOP-92 = tested on: HOP-92
# HT-29 = tested on: HT-29
# Hs-578T = tested on: Hs-578T
# IGROV-1 = tested on: IGROV-1
# K562 = tested on: K562
# LOX IMVI = tested on: LOX IMVI
# M14 = tested on: M14
# MCF7 = tested on: MCF7
# MDA-MB-231 = tested on: MDA-MB-231
# MDA-MB-435 = tested on: MDA-MB-435
# MDA-N = tested on: MDA-N
# MOLT-4 = tested on: MOLT-4
# Malme-3M = tested on: Malme-3M
# NCI-H226 = tested on: NCI-H226
# NCI-H23 = tested on: NCI-H23
# NCI-H460 = tested on: NCI-H460
# NCI/ADR-RES = tested on: NCI/ADR-RES
# OVCAR-3 = tested on: OVCAR-3
# OVCAR-4 = tested on: OVCAR-4
# OVCAR-5 = tested on: OVCAR-5
# OVCAR-8 = tested on: OVCAR-8
# PC-3 = tested on: PC-3
# RPMI-8226 = tested on: RPMI-8226
# RXF 393 = tested on: RXF 393
# SF-268 = tested on: SF-268
# SF-295 = tested on: SF-295
# SF-539 = tested on: SF-539
# SK-MEL-28 = tested on: SK-MEL-28
# SK-MEL-2 = tested on: SK-MEL-2
# SK-MEL-5 = tested on: SK-MEL-5
# SK-OV-3 = tested on: SK-OV-3
# SN12C = tested on: SN12C
# SNB-19 = tested on: SNB-19
# SR = tested on: SR
# SW-620 = tested on: SW-620
# T47D = tested on: T47D
# TK-10 = tested on: TK-10
# U-251 = tested on: U-251
# UACC-257 = tested on: UACC-257
# UACC-62 = tested on: UACC-62
# UO-31 = tested on: UO-31
# 786-0 = tested on: 786-0
# KM12 = tested on: KM12
# NCI-H522 = tested on: NCI-H522
# SNB-75 = tested on: SNB-75
smiles,measurement,setting,value
C/C=C1/CN2CC[C@@H]3c4ccccc4N4[C@H](C(=O)OC)[C@H]1C[C@H]2[C@]34/C=C/C1=COC[C@@H]2[C@H]1C[C@H]1c3c(c4ccccc4n3C)C[C@@H]2N1C,GI50,A498,4.59 µM (inactive)
same,GI50,A549,4.16 µM (inactive)
same,GI50,ACHN,4.03 µM (inactive)
same,GI50,BT-549,4.32 µM (inactive)
same,GI50,CAKI-1,4.1 µM (inactive)
same,GI50,CCRF-CEM,5.31 µM (inactive)
same,GI50,COLO 205,3.4 µM (inactive)
same,GI50,DU-145,5.12 µM (inactive)
same,GI50,EKVX,2.99 µM (inactive)
same,GI50,HCC 2998,0.345 µM (active)
same,GI50,HCT-116,3.89 µM (inactive)
same,GI50,HCT-15,4.14 µM
same,GI50,HOP-62,3.82 µM (inactive)
same,GI50,HOP-92,4.28 µM (inactive)
same,GI50,HT-29,2.77 µM (inactive)
same,GI50,Hs-578T,4.48 µM (inactive)
same,GI50,IGROV-1,4.57 µM (inactive)
same,GI50,K562,6.15 µM (inactive)
same,GI50,LOX IMVI,4.19 µM (inactive)
same,GI50,M14,4.37 µM (inactive)
same,GI50,MCF7,4.55 µM (inactive)
same,GI50,MDA-MB-231,4.02 µM (inactive)
same,GI50,MDA-MB-435,3.26 µM (inactive)
same,GI50,MDA-N,2.32 µM (inactive)
same,GI50,MOLT-4,4.02 µM (inactive)
same,GI50,Malme-3M,4.62 µM (inactive)
same,GI50,NCI-H226,4.5 µM (inactive)
same,GI50,NCI-H23,4.39 µM (inactive)
same,GI50,NCI-H460,4.04 µM (inactive)
same,GI50,NCI/ADR-RES,3.46 µM (inactive)
same,GI50,OVCAR-3,4.33 µM (inactive)
same,GI50,OVCAR-4,3.61 µM (inactive)
same,GI50,OVCAR-5,4.33 µM (inactive)
same,GI50,OVCAR-8,4.11 µM (inactive)
same,GI50,PC-3,2.9 µM (inactive)
same,GI50,RPMI-8226,4.09 µM (inactive)
same,GI50,RXF 393,4.19 µM (inactive)
same,GI50,SF-268,3.61 µM (inactive)
same,GI50,SF-295,4.45 µM (inactive)
same,GI50,SF-539,4.15 µM (inactive)
same,GI50,SK-MEL-28,5.15 µM (inactive)
same,GI50,SK-MEL-2,4.33 µM (inactive)
same,GI50,SK-MEL-5,3.89 µM (inactive)
same,GI50,SK-OV-3,4.57 µM (inactive)
same,GI50,SN12C,4.33 µM (inactive)
same,GI50,SNB-19,3.64 µM (inactive)
same,GI50,SR,6.1 µM (inactive)
same,GI50,SW-620,3.83 µM (inactive)
same,GI50,T47D,4.23 µM (inactive)
same,GI50,TK-10,3.86 µM (inactive)
same,GI50,U-251,3.72 µM (inactive)
same,GI50,UACC-257,4.52 µM (inactive)
same,GI50,UACC-62,4.86 µM (inactive)
same,GI50,UO-31,3.99 µM (inactive)
COc1cc2c(cc1C1COc3cc4occc4cc3C1=O)OCO2 (stereo not drawn),GI50,786-0,> 100 µM (inactive)
same,GI50,A498,31.8 µM (inactive)
same,GI50,A549,7.11 µM (inactive)
same,GI50,ACHN,> 100 µM (inactive)
same,GI50,BT-549,> 100 µM (inactive)
same,GI50,CAKI-1,67 µM (inactive)
same,GI50,CCRF-CEM,> 100 µM (inactive)
same,GI50,COLO 205,> 100 µM (inactive)
same,GI50,DU-145,> 100 µM (inactive)
same,GI50,EKVX,87.3 µM (inactive)
same,GI50,HCC 2998,98.6 µM (inactive)
same,GI50,HCT-116,> 100 µM (inactive)
same,GI50,HCT-15,35.9 µM
same,GI50,HOP-62,40.3 µM (inactive)
same,GI50,HOP-92,91 µM (inactive)
same,GI50,HT-29,41.2 µM (inactive)
same,GI50,Hs-578T,28.1 µM (inactive)
same,GI50,IGROV-1,63 µM (inactive)
same,GI50,KM12,> 100 µM (inactive)
same,GI50,LOX IMVI,> 100 µM (inactive)
same,GI50,M14,> 100 µM (inactive)
same,GI50,MCF7,17.4 µM (inactive)
same,GI50,MDA-MB-231,> 100 µM (inactive)
same,GI50,MDA-MB-435,> 100 µM (inactive)
same,GI50,MDA-N,> 100 µM (inactive)
same,GI50,MOLT-4,4.05 µM (inactive)
same,GI50,Malme-3M,89.1 µM (inactive)
same,GI50,NCI-H226,25.7 µM (inactive)
same,GI50,NCI-H23,> 100 µM (inactive)
same,GI50,NCI-H522,> 100 µM (inactive)
same,GI50,NCI/ADR-RES,17.1 µM (inactive)
same,GI50,OVCAR-3,> 100 µM (inactive)
same,GI50,OVCAR-4,2.81 µM (inactive)
same,GI50,OVCAR-5,> 100 µM (inactive)
same,GI50,OVCAR-8,21.1 µM (inactive)
same,GI50,PC-3,> 100 µM (inactive)
same,GI50,RPMI-8226,2.67 µM (inactive)
same,GI50,RXF 393,36.3 µM (inactive)
same,GI50,SF-268,55.1 µM (inactive)
same,GI50,SF-295,53.8 µM (inactive)
same,GI50,SF-539,35.6 µM (inactive)
same,GI50,SK-MEL-28,40.1 µM (inactive)
same,GI50,SK-MEL-2,> 100 µM (inactive)
same,GI50,SK-MEL-5,> 100 µM (inactive)
same,GI50,SK-OV-3,34.4 µM (inactive)
same,GI50,SN12C,> 100 µM (inactive)
same,GI50,SNB-19,30.1 µM (inactive)
same,GI50,SNB-75,> 100 µM (inactive)
same,GI50,SR,49.1 µM (inactive)
same,GI50,SW-620,> 100 µM (inactive)
same,GI50,T47D,> 100 µM (inactive)
same,GI50,TK-10,29.4 µM (inactive)
same,GI50,U-251,76 µM (inactive)
same,GI50,UACC-257,> 100 µM (inactive)
same,GI50,UACC-62,> 100 µM (inactive)
same,GI50,UO-31,> 100 µM (inactive)
COc1ccc2c3c([nH]c2c1)[C@H]1C[C@H]2[C@H](C[C@@H](O)[C@H](OC)[C@H]2C(=O)O)CN1CC3,GI50,786-0,> 100 µM (inactive)
same,GI50,A498,> 100 µM (inactive)
same,GI50,A549,> 100 µM (inactive)
same,GI50,ACHN,> 100 µM (inactive)
same,GI50,BT-549,> 100 µM (inactive)
same,GI50,CAKI-1,> 100 µM (inactive)
same,GI50,CCRF-CEM,> 100 µM (inactive)
same,GI50,COLO 205,> 100 µM (inactive)
same,GI50,DU-145,> 100 µM (inactive)
same,GI50,EKVX,> 100 µM (inactive)
same,GI50,HCC 2998,> 100 µM (inactive)
same,GI50,HCT-116,> 100 µM (inactive)
same,GI50,HCT-15,> 100 µM
same,GI50,HOP-62,> 100 µM (inactive)
same,GI50,HOP-92,> 100 µM (inactive)
same,GI50,HT-29,> 100 µM (inactive)
same,GI50,Hs-578T,62.8 µM (inactive)
same,GI50,IGROV-1,> 100 µM (inactive)
same,GI50,K562,> 100 µM (inactive)
same,GI50,KM12,> 100 µM (inactive)
same,GI50,LOX IMVI,> 100 µM (inactive)
same,GI50,M14,> 100 µM (inactive)
same,GI50,MCF7,> 100 µM (inactive)
same,GI50,MDA-MB-231,> 100 µM (inactive)
same,GI50,MDA-MB-435,> 100 µM (inactive)
same,GI50,MDA-N,> 100 µM (inactive)
same,GI50,MOLT-4,> 100 µM (inactive)
same,GI50,Malme-3M,> 100 µM (inactive)
same,GI50,NCI-H226,> 100 µM (inactive)
same,GI50,NCI-H23,> 100 µM (inactive)
same,GI50,NCI-H460,> 100 µM (inactive)
same,GI50,NCI-H522,> 100 µM (inactive)
same,GI50,NCI/ADR-RES,> 100 µM (inactive)
same,GI50,OVCAR-3,> 100 µM (inactive)
same,GI50,OVCAR-4,> 100 µM (inactive)
same,GI50,OVCAR-5,> 100 µM (inactive)
same,GI50,OVCAR-8,> 100 µM (inactive)
same,GI50,PC-3,> 100 µM (inactive)
same,GI50,RPMI-8226,> 100 µM (inactive)
same,GI50,RXF 393,> 100 µM (inactive)
same,GI50,SF-268,> 100 µM (inactive)
same,GI50,SF-295,> 100 µM (inactive)
same,GI50,SF-539,> 100 µM (inactive)
same,GI50,SK-MEL-28,> 100 µM (inactive)
same,GI50,SK-MEL-2,> 100 µM (inactive)
same,GI50,SK-MEL-5,> 100 µM (inactive)
same,GI50,SK-OV-3,> 100 µM (inactive)
same,GI50,SN12C,> 100 µM (inactive)
same,GI50,SNB-19,> 100 µM (inactive)
same,GI50,SNB-75,> 100 µM (inactive)
same,GI50,SR,> 100 µM (inactive)
same,GI50,SW-620,> 100 µM (inactive)
same,GI50,T47D,> 100 µM (inactive)
same,GI50,TK-10,> 100 µM (inactive)
same,GI50,U-251,> 100 µM (inactive)
same,GI50,UACC-257,> 100 µM (inactive)
same,GI50,UACC-62,> 100 µM (inactive)
same,GI50,UO-31,> 100 µM (inactive)
